# Laboratory results as given in paper PMC12822473, “A Novel FGFR3‐Targeting Antibody‐Drug Conjugate Induces Tumor Cell Apoptosis through the cGAS–STING Pathway in Bladder Cancer” (Advanced Science, 2025).
# Molecular target: T1, MAD2L1 (T24 cells; MAD2L1WT and mutants reconstituted in MAD2L1‐KD T24 cells) (Homo sapiens, UniProt Q13257)
# T1 construct: MAD2L1 in human T24 cells: native, or WT / mutants re-expressed by lentivirus in knockdown cells; Western blot read-out
# Experiment: streptavidin pull-down, Western blot and MS
# Type: biochemical
# Settings: labelled compound; T24 lysate, 4 °C; competed by excess unlabelled A2
# T1 sequence (Q13257 2-205, change not shown): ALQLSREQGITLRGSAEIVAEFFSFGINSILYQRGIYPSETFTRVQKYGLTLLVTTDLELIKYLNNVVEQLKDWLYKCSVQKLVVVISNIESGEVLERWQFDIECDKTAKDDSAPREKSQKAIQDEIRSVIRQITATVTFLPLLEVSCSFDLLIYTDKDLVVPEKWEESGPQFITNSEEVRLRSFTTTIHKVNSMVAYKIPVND
compound,measurement,value
CCc1c2c(nc3cccc(F)c13)-c1cc3c(c(=O)n1C2)COC(=O)[C@@]3(CC)OC(=O)CCCC[C@@H]1SC[C@@H]2NC(=O)N[C@@H]21 [A2‐biotin],"streptavidin pull-down, Western blot and MS",pull‐down/Western blot analysis demonstrated that A2‐biotin directly binds to MAD2L1
